Results published in ChEMBL document CHEMBL4334438, “Discovery of novel glycogen synthase kinase-3α inhibitors: Structure-based virtual screening, preliminary SAR and biological evaluation for treatment of acute myeloid leukemia” (Eur J Med Chem, 2019).

Legend:
[1] = tested on: Tyrosine-protein kinase ABL1 (Homo sapiens), P00519 [Q252H]; test: Inhibition of human ABL1 Q252H mutant (27 to end residues) assessed as residual activity at 1 uM using EAIYAAPFAKKK as substrate incubated for 40 mins in presence of [gamma-33ATP] by scintillation counting based radiometry assay relative to control
[2] = target: CDK9/cyclin T1 (Homo sapiens) (UniProt O60563+P50750); test: Inhibition of recombinant full length human CDK9/cyclinT1 assessed as residual activity at 1 uM using KTFCGTPEYLAPEVRREPRILSEEEQEMFRDFDYIADWC as substrate incubated for 40 mins in presence of [gamma-33ATP] by scintillation counting based radiometry assay relative to control; format: protein-complex assay
[3] = tested on: Serine/threonine-protein kinase Chk2 (Homo sapiens), O96017 [I157T]; test: Inhibition of recombinant human CHK2 I157T mutant (5 to end residues) assessed as residual activity at 1 uM using KKKVSRSGLYRSPSMPENLNRPR as substrate incubated for 40 mins in presence of [gamma-33ATP] by scintillation counting based radiometry assay relative to control
[4] = target: Casein kinase 2 (Homo sapiens) (UniProt P67870+P68400+P19784+Q8NEV1); test: Inhibition of recombinant human CK2 assessed as residual activity at 1 uM in presence of [gamma-33ATP] by scintillation counting based radiometry assay relative to control; format: protein assay
[5] = target: Dual specificity protein kinase CLK2 (Homo sapiens) (UniProt P49760); test: Inhibition of recombinant human CLK2 (138 to end residues) assessed as residual activity at 1 uM using YRRAAVPPSPSLSRHSSPHQS(p)EDEEE as substrate incubated 40 mins in presence of [gamma-33ATP] by scintillation counting based radiometry assay relative to control
[6] = target: Fibroblast growth factor receptor 3 (Homo sapiens) (UniProt P22607); test: Inhibition of recombinant human FGFR3 (447 to 761 residues) assessed as residual activity at 1 uM using poly(Glu, Tyr) 4:1 as substrate at 40 mins in presence of [gamma-33ATP] by scintillation counting based radiometry assay relative to control
[7] = tested on: Receptor-type tyrosine-protein kinase FLT3 (Homo sapiens), P36888 [D835Y]; test: Inhibition of recombinant human FLT3 D835Y mutant (564 to end residues) assessed as residual activity at 1 uM using EAIYAAPFAKKK as substrate at 40 mins in presence of [gamma-33ATP] by scintillation counting based radiometry assay relative to control
[8] = target: Tyrosine-protein kinase Fyn (Homo sapiens) (UniProt P06241); test: Inhibition of recombinant full length human Fyn assessed as residual activity at 1 uM using KVEKIGEGTYGVVYK as substrate at 40 mins in presence of [gamma-33ATP] by scintillation counting based radiometry assay relative to control
[9] = target: Beta-adrenergic receptor kinase 1 (Homo sapiens) (UniProt P25098); test: Inhibition of recombinant full length human GRK2 assessed as residual activity at 1 uM using casein as substrate at 40 mins in presence of [gamma-33ATP] by scintillation counting based radiometry assay relative to control
[10] = target: Inhibitor of nuclear factor kappa-B kinase subunit epsilon (Homo sapiens) (UniProt Q14164); test: Inhibition of full length human IKKepsilon assessed as residual activity at 1 uM using casein as substrate after 40 mins by [gamma-33ATP] radiometric assay relative to control
[11] = target: Mitogen-activated protein kinase 10 (Homo sapiens) (UniProt P53779); test: Inhibition of human JNK3 assessed as residual activity at 1 uM using peptide as substrate after 40 mins by [gamma-33ATP] radiometric assay relative to control
[12] = target: LIM domain kinase 1 (Homo sapiens) (UniProt P53667); test: Inhibition of recombinant human LIMK1 (285 to 638 residues) assessed as residual activity at 1 uM using cofilin as substrate after 40 mins in presence of [gamma-33ATP] by scintillation counting based radiometry assay relative to control
[13] = target: Maternal embryonic leucine zipper kinase (Homo sapiens) (UniProt Q14680); test: Inhibition of recombinant human MELK (1 to 340 residues) assessed as residual activity at 1 uM using KKLNRTLSFAEPG as substrate incubated for 40 mins in presence of [gamma-33ATP by scintillation counting based radiometry assay relative to control
[14] = target: Hepatocyte growth factor receptor (Homo sapiens) (UniProt P08581); test: Inhibition of recombinant human MET A1209G/V1290L mutant (974 to end residues) assessed as residual activity at 1 uM using KKKGQEEEYVFIE as substrate incubated for 40 mins in presence of [gamma-33ATP by scintillation counting based radiometry assay relative to control
[15] = target: PAS domain-containing serine/threonine-protein kinase (Homo sapiens) (UniProt Q96RG2); test: Inhibition of recombinant human PASK (995 to end residues) assessed as residual activity at 1 uM using KKLNRTLSFAEPG as substrate measured after 40 mins in presence of [gamma33P]ATP by scintillation counting method relative to control
[16] = target: Tyrosine-protein kinase FRK (Homo sapiens) (UniProt P42685); test: Inhibition of recombinant human PTK5 (218 to end residues) assessed as residual activity at 1 uM using GGEEEEYFELVKKKK as substrate measured after 40 mins in presence of [gamma33P]ATP by scintillation counting method relative to control
[17] = target: Serine/threonine-protein kinase SIK1 (Homo sapiens) (UniProt P57059); test: Inhibition of recombinant human SIK (1 to 281 residues) assessed as residual activity at 1 uM using AMARAASAAALARRR as substrate measured after 40 mins in presence of [gamma33P]ATP by scintillation counting method assay relative to control
[18] = target: Serine/threonine-protein kinase 32B (Homo sapiens) (UniProt Q9NY57); test: Inhibition of recombinant full-length human STK32B at 1 uM assessed as residual activity at 1 uM using casein as substrate measured after 120 mins in presence of [gamma33P]ATP by scintillation counting method relative to control
[19] = target: TGF-beta receptor type-2 (Homo sapiens) (UniProt P37173); test: Inhibition of human TGFBR2 (188 to end residues) assessed as residual activity at 1 uM using myelin basic protein as substrate measured after 120 mins in presence of [gamma33P]ATP by scintillation counting method relative to control
Homo sapiens = species on record: Homo sapiens; test: Inhibition of recombinant full-length human PI3K p110delta/p85alpha N253S mutant at 1 uM assessed as residual activity at 1 uM using phosphatidylinositol-4, 5-bisphosphate as substrate measured after 40 mins by fluorescence assay
[20] = target: Phosphatidylinositol 3-kinase C2 domain-containing subunit gamma (Homo sapiens) (UniProt O75747); test: Inhibition of recombinant human PI3KC2gamma (468 to 1203 residues) at 1 uM assessed as residual activity at 1 uM using phosphatidylinositol as substrate measured after 40 mins by HTRF assay

Chain of Serine/threonine-protein kinase 32B (Homo sapiens) (Q9NY57 whole entry): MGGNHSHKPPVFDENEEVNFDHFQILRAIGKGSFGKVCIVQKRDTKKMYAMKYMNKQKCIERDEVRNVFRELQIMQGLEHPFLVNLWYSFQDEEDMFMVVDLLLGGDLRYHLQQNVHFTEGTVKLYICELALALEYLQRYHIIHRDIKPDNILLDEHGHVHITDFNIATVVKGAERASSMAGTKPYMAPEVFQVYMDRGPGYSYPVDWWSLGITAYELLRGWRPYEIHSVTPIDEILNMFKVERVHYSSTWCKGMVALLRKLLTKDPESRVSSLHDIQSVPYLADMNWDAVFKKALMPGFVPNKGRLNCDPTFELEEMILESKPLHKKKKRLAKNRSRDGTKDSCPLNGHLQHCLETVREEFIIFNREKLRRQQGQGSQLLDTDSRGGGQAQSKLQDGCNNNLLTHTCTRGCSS
Chain of LIM domain kinase 1 (Homo sapiens) (P53667 whole entry, looked up, the tested form may be a part): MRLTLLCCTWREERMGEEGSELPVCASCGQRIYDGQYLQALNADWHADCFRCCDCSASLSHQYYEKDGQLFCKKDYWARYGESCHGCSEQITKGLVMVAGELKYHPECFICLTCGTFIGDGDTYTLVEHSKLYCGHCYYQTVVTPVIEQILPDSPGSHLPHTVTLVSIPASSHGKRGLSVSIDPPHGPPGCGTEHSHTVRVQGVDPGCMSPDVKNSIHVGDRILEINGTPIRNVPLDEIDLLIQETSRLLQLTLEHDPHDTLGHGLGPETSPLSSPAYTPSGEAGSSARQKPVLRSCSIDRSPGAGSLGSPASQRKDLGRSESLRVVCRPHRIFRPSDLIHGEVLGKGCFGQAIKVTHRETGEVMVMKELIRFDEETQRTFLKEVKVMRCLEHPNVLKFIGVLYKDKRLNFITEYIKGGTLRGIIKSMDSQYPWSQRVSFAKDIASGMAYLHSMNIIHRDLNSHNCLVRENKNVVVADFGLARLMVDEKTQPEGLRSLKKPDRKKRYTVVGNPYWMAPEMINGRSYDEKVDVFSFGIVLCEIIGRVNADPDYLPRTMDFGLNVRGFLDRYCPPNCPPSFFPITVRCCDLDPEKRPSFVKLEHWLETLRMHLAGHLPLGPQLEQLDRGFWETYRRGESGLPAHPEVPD
Chain of Fibroblast growth factor receptor 3 (Homo sapiens) (P22607 23-806 limits assumed): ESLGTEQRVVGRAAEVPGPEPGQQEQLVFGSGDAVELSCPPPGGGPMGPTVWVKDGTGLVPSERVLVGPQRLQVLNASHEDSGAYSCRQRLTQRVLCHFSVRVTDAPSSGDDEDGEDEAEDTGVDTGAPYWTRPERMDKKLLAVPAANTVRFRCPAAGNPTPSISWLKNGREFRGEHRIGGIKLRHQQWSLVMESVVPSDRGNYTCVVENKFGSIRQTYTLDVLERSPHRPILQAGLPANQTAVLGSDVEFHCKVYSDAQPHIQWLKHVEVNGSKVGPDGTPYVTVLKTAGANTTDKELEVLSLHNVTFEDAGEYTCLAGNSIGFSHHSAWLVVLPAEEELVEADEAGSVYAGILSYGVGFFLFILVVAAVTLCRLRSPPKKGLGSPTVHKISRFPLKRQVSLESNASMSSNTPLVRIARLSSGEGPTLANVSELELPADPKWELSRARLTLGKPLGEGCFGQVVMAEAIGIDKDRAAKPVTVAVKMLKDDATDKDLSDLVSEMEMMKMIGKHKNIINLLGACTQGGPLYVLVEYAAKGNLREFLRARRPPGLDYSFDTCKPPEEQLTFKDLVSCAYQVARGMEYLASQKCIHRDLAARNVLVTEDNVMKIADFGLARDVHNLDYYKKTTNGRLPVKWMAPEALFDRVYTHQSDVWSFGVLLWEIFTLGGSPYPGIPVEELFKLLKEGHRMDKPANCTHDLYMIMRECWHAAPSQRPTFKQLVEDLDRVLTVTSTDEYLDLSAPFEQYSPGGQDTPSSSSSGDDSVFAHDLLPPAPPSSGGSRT
Chain of Beta-adrenergic receptor kinase 1 (Homo sapiens) (P25098 whole entry): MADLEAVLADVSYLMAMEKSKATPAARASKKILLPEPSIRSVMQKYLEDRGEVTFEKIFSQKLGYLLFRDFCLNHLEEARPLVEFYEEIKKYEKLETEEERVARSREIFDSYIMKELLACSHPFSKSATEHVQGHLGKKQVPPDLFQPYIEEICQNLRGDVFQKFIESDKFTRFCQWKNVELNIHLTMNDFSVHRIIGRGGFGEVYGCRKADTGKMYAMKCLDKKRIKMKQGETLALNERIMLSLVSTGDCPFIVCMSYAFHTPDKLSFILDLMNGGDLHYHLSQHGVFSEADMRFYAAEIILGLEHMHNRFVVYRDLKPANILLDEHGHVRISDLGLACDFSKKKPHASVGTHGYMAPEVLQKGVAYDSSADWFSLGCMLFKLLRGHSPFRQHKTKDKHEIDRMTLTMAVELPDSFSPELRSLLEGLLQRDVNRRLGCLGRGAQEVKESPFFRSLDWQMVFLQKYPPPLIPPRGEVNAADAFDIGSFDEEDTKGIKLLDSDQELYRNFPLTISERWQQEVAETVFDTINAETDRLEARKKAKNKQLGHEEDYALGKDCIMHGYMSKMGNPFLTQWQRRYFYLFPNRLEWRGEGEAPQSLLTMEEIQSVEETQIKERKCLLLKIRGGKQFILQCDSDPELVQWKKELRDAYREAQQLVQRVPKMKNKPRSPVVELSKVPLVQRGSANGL
Chain of Inhibitor of nuclear factor kappa-B kinase subunit epsilon (Homo sapiens) (Q14164 whole entry): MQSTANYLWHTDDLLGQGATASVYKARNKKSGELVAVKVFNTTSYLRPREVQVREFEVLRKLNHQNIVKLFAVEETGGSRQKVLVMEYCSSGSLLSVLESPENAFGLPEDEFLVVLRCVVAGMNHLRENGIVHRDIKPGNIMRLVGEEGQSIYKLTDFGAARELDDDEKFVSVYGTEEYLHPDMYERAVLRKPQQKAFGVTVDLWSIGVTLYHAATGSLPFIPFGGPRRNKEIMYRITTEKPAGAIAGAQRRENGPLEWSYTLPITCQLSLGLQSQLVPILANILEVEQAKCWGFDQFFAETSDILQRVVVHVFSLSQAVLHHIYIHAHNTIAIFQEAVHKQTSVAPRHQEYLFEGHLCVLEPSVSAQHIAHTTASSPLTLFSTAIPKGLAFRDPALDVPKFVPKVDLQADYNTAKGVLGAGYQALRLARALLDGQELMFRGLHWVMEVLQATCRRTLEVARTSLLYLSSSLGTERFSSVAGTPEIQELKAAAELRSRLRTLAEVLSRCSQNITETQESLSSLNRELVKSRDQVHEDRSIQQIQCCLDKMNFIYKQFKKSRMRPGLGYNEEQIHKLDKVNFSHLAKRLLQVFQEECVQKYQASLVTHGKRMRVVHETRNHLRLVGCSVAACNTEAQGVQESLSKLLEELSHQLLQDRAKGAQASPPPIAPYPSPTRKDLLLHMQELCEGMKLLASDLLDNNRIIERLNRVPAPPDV
Chain of Dual specificity protein kinase CLK2 (Homo sapiens) (P49760 whole entry, looked up, the tested form may be a part): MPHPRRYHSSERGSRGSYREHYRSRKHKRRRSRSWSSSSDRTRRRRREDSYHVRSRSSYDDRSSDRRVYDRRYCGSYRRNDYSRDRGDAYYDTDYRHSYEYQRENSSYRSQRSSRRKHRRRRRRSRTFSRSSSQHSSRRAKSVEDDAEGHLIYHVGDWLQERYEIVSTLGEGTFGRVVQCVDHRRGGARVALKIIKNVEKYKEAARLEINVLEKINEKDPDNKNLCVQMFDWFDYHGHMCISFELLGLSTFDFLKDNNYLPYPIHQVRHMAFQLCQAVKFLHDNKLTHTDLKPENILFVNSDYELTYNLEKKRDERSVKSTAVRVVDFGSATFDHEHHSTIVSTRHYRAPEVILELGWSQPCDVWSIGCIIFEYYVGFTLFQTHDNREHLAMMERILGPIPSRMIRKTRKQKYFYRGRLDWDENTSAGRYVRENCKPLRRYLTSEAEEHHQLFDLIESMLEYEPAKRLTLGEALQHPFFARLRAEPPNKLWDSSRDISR
Chain of Mitogen-activated protein kinase 10 (Homo sapiens) (P53779 whole entry, the tested form may be a part): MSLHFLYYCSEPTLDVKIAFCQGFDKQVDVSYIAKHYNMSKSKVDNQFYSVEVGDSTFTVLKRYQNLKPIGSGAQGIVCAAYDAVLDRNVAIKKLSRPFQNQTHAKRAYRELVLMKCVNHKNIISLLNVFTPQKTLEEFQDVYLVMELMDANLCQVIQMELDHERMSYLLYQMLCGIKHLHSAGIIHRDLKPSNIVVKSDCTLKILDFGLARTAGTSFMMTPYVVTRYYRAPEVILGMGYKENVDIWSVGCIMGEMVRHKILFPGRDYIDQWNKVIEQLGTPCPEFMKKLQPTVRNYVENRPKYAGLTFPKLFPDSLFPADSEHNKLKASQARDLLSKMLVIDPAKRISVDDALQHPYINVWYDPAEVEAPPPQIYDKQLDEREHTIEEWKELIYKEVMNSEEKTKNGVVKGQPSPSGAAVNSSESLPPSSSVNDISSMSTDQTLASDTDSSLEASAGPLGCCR
Chain of Maternal embryonic leucine zipper kinase (Homo sapiens) (Q14680 whole entry, looked up, the tested form may be a part): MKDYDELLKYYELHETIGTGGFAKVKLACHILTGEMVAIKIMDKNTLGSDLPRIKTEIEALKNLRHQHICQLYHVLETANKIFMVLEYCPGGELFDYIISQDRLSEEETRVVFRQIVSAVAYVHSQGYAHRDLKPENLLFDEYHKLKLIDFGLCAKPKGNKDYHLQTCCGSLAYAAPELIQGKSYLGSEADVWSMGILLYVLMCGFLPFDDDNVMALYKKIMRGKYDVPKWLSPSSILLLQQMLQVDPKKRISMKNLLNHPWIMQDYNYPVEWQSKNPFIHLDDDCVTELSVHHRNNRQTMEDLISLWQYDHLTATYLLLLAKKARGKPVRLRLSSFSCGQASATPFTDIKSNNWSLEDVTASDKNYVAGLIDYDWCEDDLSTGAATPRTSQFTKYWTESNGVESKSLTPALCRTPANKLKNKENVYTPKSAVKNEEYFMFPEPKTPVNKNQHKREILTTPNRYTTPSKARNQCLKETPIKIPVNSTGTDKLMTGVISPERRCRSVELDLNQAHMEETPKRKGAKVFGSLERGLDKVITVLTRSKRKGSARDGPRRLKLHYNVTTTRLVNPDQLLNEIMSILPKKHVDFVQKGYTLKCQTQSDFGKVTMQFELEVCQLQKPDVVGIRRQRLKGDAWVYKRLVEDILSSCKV

`N=C1NC(=O)/C(=C\c2ccc(-c3cccc([N+](=O)[O-])c3)o2)S1` showed an Activity [1] of 80%, an Activity [2] of 74% and an Activity [3] of 85%. The Activity [4] was 43%, the Activity [5] was 39% and the Activity [6] was 107%. It also gave an Activity [7] of 84%, an Activity [8] of 79% and an Activity [9] of 98%. It also gave an Activity [10] of 100%, an Activity [11] of 112% and an Activity [12] of 100%. For the same compound, the Activity [13] was 89%, the Activity [14] was 96% and the Activity [15] was 92%. It also gave an Activity [16] of 92%, an Activity [17] of 105% and an Activity [18] of 102%. It also gave an Activity [19] of 61%, an Activity (Homo sapiens) of 98% and an Activity [20] of 90%.
`C=CCOC(=O)c1cc(-c2ccc(/C=C3/NC(=S)NC3=O)o2)ccc1Cl` showed an Activity [1] of 110%, an Activity [2] of 86% and an Activity [3] of 91%. It also gave an Activity [4] of 58%, an Activity [5] of 38% and an Activity [6] of 106%. For the same compound, the Activity [7] was 101%, the Activity [8] was 102% and the Activity [9] was 101%. It also gave an Activity [10] of 98%, an Activity [11] of 100% and an Activity [12] of 96%. For the same compound, the Activity [13] was 105%, the Activity [14] was 102% and the Activity [15] was 97%. It also gave an Activity [16] of 96%, an Activity [17] of 107% and an Activity [18] of 86%. For the same compound, the Activity [19] was 90%, the Activity (Homo sapiens) was 94% and the Activity [20] was 77%.
